Measured values as given in US11905244B2, “Chemical modulators of store-operated calcium channels and their therapeutic applications” (The Texas A&M University System, priority 2017, dated 2024).
“Also recorded” adds a separate entry of the source. Like-named read-outs stand apart in the source and are kept apart here.

How the values were obtained:
[1] = molecular target: CRAC channel (Homo sapiens (Human), UniProt Q96D31); test: GFP-NFAT translocation-based high-content screening (TG-stimulated HeLa cells stably expressing GFP-NFAT); assay type: cell-based; conditions: for Inhibitory activity on CRAC channel in primary screening (NFAT nucleus-to-cytosol ratio): 200 μM compound
CRAC channel, sequence (Q96D31 whole entry): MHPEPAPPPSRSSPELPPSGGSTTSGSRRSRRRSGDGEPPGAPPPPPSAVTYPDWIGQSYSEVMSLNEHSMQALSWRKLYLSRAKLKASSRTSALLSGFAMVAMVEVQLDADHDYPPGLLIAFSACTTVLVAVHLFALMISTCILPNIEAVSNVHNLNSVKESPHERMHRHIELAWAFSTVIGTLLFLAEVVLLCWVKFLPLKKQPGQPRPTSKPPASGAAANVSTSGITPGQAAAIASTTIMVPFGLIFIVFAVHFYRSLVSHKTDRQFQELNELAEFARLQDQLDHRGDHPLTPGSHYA
From the text: It is known that thapsigargin (TG) can induce the CRAC channel to open resulting in the calcium influx. The elevation of calcium in cytoplasm can activate the Ca^2+-calcineurin-NFAT pathway followed by NFAT translocation from the cytoplasm to the nucleus to regulate gene transcription. Therefore, the inventors built a GFP-NFAT translocation-based high-content screening method to evaluate the activity of compounds on CRAC channel. Briefly, a HeLa cell line stably expressing GFP-NFAT was established and used, and the images after chemical stimulation in the presence of TG were acquired using an IN Cell Analyzer 6000 confocal laser imaging system, and then the GFP fluorescent intensity ratio between cytoplasm and nucleus was analyzed to reflect the inhibitory activity of compound on CRAC channel.
Briefly, GFP-NFAT stable cells were cultured in Dulbecco's modified eagle's medium (DMEM) supplemented with 10% FBS in 5% carbon dioxide at 37° C. When it reached 90% confluency, a cell suspension with a concentration of […] was prepared, and an amount of 2000 cells per well (25 μL/well) was seeded in 384 well plate, putting it at the room temperature for 1 h to make sure the cells distribute evenly, then the cells were incubated overnight. First, primary screening of the selected compounds was conducted. A series of compound solutions with a concentration of 200 μM in MEDM medium were prepared in a 96 well plate and then added to a 384 well plate using a Beckman Coulter automatic drug adding system, in 4 duplicates, and incubated for 30 min at 37° C. SKF was selected as the positive control. Then, 1 μM TG and 1 mM Ca^2+ were added to 384-well plate using Beckman Coulter automatic drug adding system and incubated for 20 min. Subsequently, 384 well plate was gently washed with PBS twice, and the cells were fixed with 4% PFA (25 μl per well) for 10˜15 mins at room temperature, then washed with PBS gently, added 0.5% Triton X-100 (25 μL per well), and incubated for 5 mins aFt room temperature, stained with DAPI (1 μg/mL) for 5˜10 mins at room temperature, washed with PBS and added 30 μL PBS per well to image on confocal laser imaging system (objective lens: 10×, FITC and UV). Using Pipeline Plot software (NAFT translocation protocol), the intensity of green fluorescence was analyzed in nucleus and cytosol, calculate the ratio of nucleus:cytosol, normalize TG stimulate NFAT translocation as 1 and no TG adding as 0. Finally, the data was analyzed using GraphPad Prism 5 software.

[2] = tested on: MDA-MB-231 breast cancer cells; test: Migration assay (wound healing assay); assay type: cell-based; conditions: MDA-MB-231, wound healing assay
Description: The effect of compounds on inhibiting migration was evaluated using wound healing assay. Briefly, cells were seeded in a six well-plate, and a wound was generated by scratching the cell monolayer with a 200 μL pipette tip. Then, cells were continued to be cultured in the presence or absence of compounds, and the photographic recording was performed at 0 h, 24 h, and 48 h respectively. The number of the migrated cells was calculated with ImageJ software.

[3] = tested on: U87 cells; test: Cell cycle analysis in U87 cells; assay type: cell-based; conditions: compared to control
Description: (§1) Cells were treated with or without compounds at 37° C. with 5% CO2. After incubation for 24 h, cells were collected by trypsinization and fixed with cold 95% ethanol over 30 min at 4° C. Subsequently, the cell suspension was centrifuged at 1000 rmp/5 min, and washed with PBS one time. The cell pellets were resuspended in 0.4 mL PBS and treated with RNAase A (0.1 mg/mL) at 37° C. for 30 min. Then, propidium iodine (50 μg/mL, PI) was added and the cells were stained for 30 min at 37° C. Analysis of cellular DNA content was performed by flow cytometry.

[4] = tested on: MDA-MB-231 breast cancer cells; test: Invasion assay; assay type: cell-based
[5] = tested on: cytokine IL-2 expression in primary T cells; test: Effect of compounds on cytokine expression in primary T cells (flow cytometry); assay type: cell-based; conditions: Mus musculus, T-cell
Description: The lymph nodes and a spleen from mouse were collected, and then the immune cells were induced to differentiate towards Th1 cells in presence of α-CD3, α-CD28, IL-12, and IL-2. After obtaining Th1 cells, the cells were amplified and then the cells were treated with drugs. The expression level of the cytokine was analyzed using flow cytometry.

[6] = tested on: Jurkat cells; test: Cell cycle analysis in Jurkat cells; assay type: cell-based; conditions: compared to control
Description: as §1

[7] = tested on: calcium influx; test: Inhibitory activity on calcium influx; assay type: cell-based
[8] = tested on: azoxymethane (AOM)-induced mouse colon cancer model; test: Azoxymethane (AOM)-induced mouse colon cancer model; assay type: in vivo; conditions: treated for 8 weeks
Description: To induce colon cancer in situ, mice (four month old) were randomly divided into three groups: (1) AOM control group; (2) Compound 53 group, (3) CsA group, and injected with AOM subcutaneously (10 mg/kg body weight) once a week for 4 weeks. Then, Compound 53 and CsA group were treated with Compound 53 and CsA respectively for 8 weeks, and the control group was treated with 0.9% NaCl solution. Then, mice were killed and the colon was isolated. The number of the tumors formed was analyzed.

[9] = tested on: IL-2 and IFNγ expression in Jurkat cell; test: Cytokine expression in Jurkat cells; assay type: cell-based
[10] = Table 2, unit inferred, read-out: IC50 of the compounds (inhibitory activity on CRAC channel)
[11] = Table 1, hits from virtual screening, unit inferred, read-out: IC50 Value
[12] = GFP-NFAT translocation assay, read-out: IC50 on CRAC channel

## CN/C(=N/c1cc(Cl)ccc1Cl)SC1CC(=O)N(c2ccc(C(=O)OC)cc2)C1=O (centres unmarked) [Compound 65]
[1]
  Inhibitory activity on CRAC channel in primary screening (NFAT nucleus-to-cytosol ratio): good inhibition
[1]; [10]
  IC50: 30.6 µM
[2]
  Cell migration: greatly inhibit

## CCOC(=O)c1ccc(N2C(=O)CC(S/C(=N/c3ccccc3)NC3CC3)C2=O)cc1 (centres unmarked) [Compound 87]
[3]
  Effect on cell cycle: cell cycle arrest at GO stage
[1]; [10]
  IC50: 0.95 µM
[2]
  Cell migration: greatly inhibit
[4]
  Cell invasion: greatly inhibit
[5]
  IC50: 0.86 ± 0.12 µM
[6]
  Effect on cell cycle: cell cycle arrest at GO stage

## CCN/C(=N/c1ccc2c(c1)OCO2)SC1CC(=O)N(c2ccc(C(=O)OC)cc2)C1=O (centres unmarked) [Compound 66]
[1]
  Inhibitory activity on CRAC channel in primary screening (NFAT nucleus-to-cytosol ratio): good inhibition
[1]; [10]
  IC50: 10.5 µM
[2]
  Cell migration: greatly inhibit

## COC(=O)c1ccc(N2C(=O)CC(S/C(=N/c3cccc(OC)c3)NCCc3ccc(S(N)(=O)=O)cc3)C2=O)cc1 (centres unmarked) [Compound 101]
[1]; [10]
  IC50: 11.2 µM

## C#CCOc1ccc2ccccc2c1/C=C1\SC(Nc2cccc(C(=O)O)c2)=NC1=O [Compound 40]
[1]; [11]
  IC50: > 200 µM

## CN1C(=O)C(Cc2ccc(O)c(Cl)c2)S/C1=N\c1cccc(C(=O)O)c1 (centres unmarked) [Compound 21]
[1]; Table 1, compound marked as agonist, unit inferred, read-out: IC50 Value (agonist)
  IC50: 60.3 µM

## O=C1CCC(=O)N1c1ccc(S(=O)(=O)O)cc1 [Compound 36]
[1]; [11]
  IC50: > 200 µM

## Cc1ccc(/N=C(\NCCc2ccc(S(N)(=O)=O)cc2)SC2CC(=O)N(c3ccc(C)cc3)C2=O)cc1 (centres unmarked) [Compound 115]
[1]; [10]
  IC50: 5.84 µM

## C=CC[C@H]1N(c2ccccc2Cl)C[C@H]2[C@H](C(=O)O)[C@@H]3C=C[C@@]21O3 [Compound 25]
[1]; [11]
  IC50: > 200 µM

## O=C(O)c1ccc(N2C(=O)CC(S/C(=N\c3ccccc3)Nc3ccccc3)C2=O)cc1 (centres unmarked) [Compound 52]
[1]; [10]
  IC50: > 200 µM

## COC(=O)c1ccc(N2C(=O)CC(S/C(=N/c3ccccc3)NC3CC3)C2=O)cc1 (centres unmarked) [Compound 80]
[1]; [10]
  IC50: > 200 µM

## CCOC(=O)c1ccc(N2C(=O)CC(S/C(=N/c3ccc(OC)cc3)NCCc3ccc(S(N)(=O)=O)cc3)C2=O)cc1 (centres unmarked) [Compound 107]
[1]; [10]
  IC50: > 200 µM

## COc1ccc(N2C(=O)CC(S/C(=N/c3ccc(C)cc3)NCCc3ccc(S(N)(=O)=O)cc3)C2=O)cc1 (centres unmarked) [Compound 105]
[1]; [10]
  IC50: > 200 µM

## Cc1cc(=O)n2c3c(cc(S(=O)(=O)NCc4ccc(C(=O)O)cc4)cc13)CC2 [Compound 12]
[1]; [11]
  IC50: > 200 µM

## CCN/C(=N\c1cc(Cl)cc(Cl)c1)S[C@H]1CC(=O)N(c2ccc(C(=O)O)cc2)C1=O [Compound 41]
[1]
  Inhibitory activity on CRAC channel in primary screening (NFAT nucleus-to-cytosol ratio): good activity
[1]; [12]
  IC50: ~100 µM
[1]; [11]
  IC50: 279 µM
[7]
  Inhibitory activity on calcium influx: obvious inhibitory activity

## NS(=O)(=O)c1ccc(CCNC(=S)Nc2cccnc2)cc1 [Compound 97]
[1]; [10]
  IC50: > 200 µM

## COC(=O)c1ccc(N2C(=O)CC(S/C(=N/c3cc(OC)ccc3OC)NCCc3ccc(S(N)(=O)=O)cc3)C2=O)cc1 (centres unmarked) [Compound 98]
[1]; [10]
  IC50: 21.2 µM

## COC(=O)c1ccc(N2C(=O)CC(S/C(=N\c3ccccc3)NCCc3ccc(S(N)(=O)=O)cc3)C2=O)cc1 (centres unmarked) [Compound 53]
[8]
  Antitumor activity compared with positive control drug CsA: better than the positive control drug CsA
  Number of the formed tumors in the colon: greatly decrease the number of the formed tumors; also recorded: reducing the number of tumors formed compared to the control group
[1]
  Inhibitory activity on CRAC channel in primary screening (NFAT nucleus-to-cytosol ratio): good inhibition
[1]; [12]
  IC50: 8.14 µM
[1]; [10]
  IC50: 13 µM
[2]
  Cell migration: greatly inhibit
[9]
  IL-2 and IFNγ (cytokine) expression: inhibit IL-2 and IFNγ expression; also recorded: inhibits cytokine expression
[4]
  Cell invasion: greatly inhibit
[5]
  IC50: 15.6 ± 1.17 µM

## CNC(=O)c1ccc(N2C(=O)CC(S/C(=N/c3ccccc3)NCCc3ccc(S(N)(=O)=O)cc3)C2=O)cc1 (centres unmarked) [Compound 99]
[1]; [10]
  IC50: 18.2 µM

## CN(C)c1ccc(CNCc2ccc(C(=O)O)cc2)cc1 [Compound 49]
[1]; [11]
  IC50: > 200 µM

## CCN/C(=N/c1cccc(F)c1)SC1CC(=O)N(c2ccc(C(=O)O)cc2)C1=O (centres unmarked) [Compound 73]
[1]; [10]
  IC50: > 200 µM

## COC(=O)c1ccc(N2C(=O)CC(S/C(=N\c3ccccc3)NCc3ccc4c(c3)OCO4)C2=O)cc1 (centres unmarked) [Compound 58]
[1]; [10]
  IC50: > 200 µM

## CN/C(=N/c1ccc(C)c(Cl)c1)SC1CC(=O)N(c2ccc(C(=O)O)cc2)C1=O (centres unmarked) [Compound 60]
[1]; [10]
  IC50: > 200 µM

## CNC(=O)c1ccc(N2C(=O)CC(S/C(=N/c3ccccc3)NC(C)C)C2=O)cc1 (centres unmarked) [Compound 93]
[1]; [10]
  IC50: > 200 µM

## CCN/C(=N\c1cccc(C(F)(F)F)c1)S[C@H]1CC(=O)N(c2ccc(C(=O)O)cc2)C1=O [Compound 03]
[1]
  Inhibitory activity on CRAC channel in primary screening (NFAT nucleus-to-cytosol ratio): good activity
[1]; [12]
  IC50: ~100 µM
[1]; [11]
  IC50: 144 µM

## Cc1ccc(S(=O)(=O)Nc2ccc(O)c(C(=O)O)c2)c(C)c1 [Compound 46]
[1]; [11]
  IC50: > 200 µM

## CN/C(=N/c1ccc(F)cc1)SC1CC(=O)N(c2ccc(C(=O)O)cc2)C1=O (centres unmarked) [Compound 54]
[1]; [10]
  IC50: > 200 µM

## Cc1ccc(N2C(=O)c3ccc(C(=O)O)cc3C2=O)cc1Cl [Compound 42]
[1]; [11]
  IC50: > 200 µM

## Nc1nc(C(=O)O)nn1C12CC3CC(CC(C3)C1)C2 [Compound 48]
[1]; [11]
  IC50: > 200 µM

## COC(=O)c1ccc(N2C(=O)CC(S/C(=N/c3ccc(OC)cc3)NCCc3ccc(S(N)(=O)=O)cc3)C2=O)cc1 (centres unmarked) [Compound 100]
[1]; [10]
  IC50: 14.8 µM

## Cc1nn(-c2ccc([N+](=O)[O-])cc2)c(Cl)c1S(=O)(=O)O [Compound 38]
[1]; [11]
  IC50: > 200 µM

## COc1ccc(N2C(=O)CC(Br)C2=O)cc1 (centres unmarked) [Compound 120]
[1]; [10]
  IC50: > 200 µM

## NS(=O)(=O)c1ccc(CCN/C(=N\c2ccccc2)SC2CC(=O)N(c3ccccc3)C2=O)cc1 (centres unmarked) [Compound 96]
[1]; [10]
  IC50: 10.9 µM

## Cc1cc(C)c(S(=O)(=O)Nc2ccc(O)c(C(=O)O)c2)c(C)c1 [Compound 06]
[1]; [11]
  IC50: > 200 µM

## CCOC(=O)c1ccc(N2C(=O)CC(SCc3nnnn3-c3ccccc3)C2=O)cc1 (centres unmarked) [Compound 57]
[1]; [10]
  IC50: > 200 µM

## COc1ccc(/N=C(\NCCc2ccc(S(N)(=O)=O)cc2)SC2CC(=O)N(c3ccccc3)C2=O)cc1 (centres unmarked) [Compound 111]
[1]; [10]
  IC50: 1.6 µM

## CCOc1cc(Cl)c(S(=O)(=O)N2CCC(C(=O)O)CC2)cc1Cl [Compound 19]
[1]; [11]
  IC50: > 200 µM

## CNC(=O)c1ccc(N2C(=O)CC(S/C(=N/c3ccccc3)NC(C)(C)C)C2=O)cc1 (centres unmarked) [Compound 95]
[1]; [10]
  IC50: > 200 µM

## O=C(CSCc1c(Cl)cccc1Cl)Nc1ccc(C(=O)O)cc1 [Compound 09]
[1]; [11]
  IC50: > 200 µM

## Cc1c(C(=O)O)nnn1-c1ccc(Br)cc1 [Compound 32]
[1]; [11]
  IC50: > 200 µM
